Data: patent publication US3960877A, “N-monosubstituted-2,3-pyridinedicarboxamides, and related compounds” (priority 1974, dated 1976)

Key:
Format in all cases: in vivo
Alfalfa [1] = assay: Preemergence herbicidal activity, % control of plant growth; conditions: Medicago sativa, pre-emergence, 504 h, 16 lb/acre, about 3 weeks
Text: (§1) By "preemergence" is meant that the compound is applied to the soil prior to emergence of the weed species sought to be controlled. This term, as used herein, also means the application of the herbicidal compounds falling within the scope of this disclosure to areas wherein useful or desirable plants are either growing or have been sown, but where the undesirable plants sought to be controlled have not as yet emerged.
(§2) In using the compound, seeds of the types of plants set forth in Table II were sown in fresh soil. In the preemergence test the soil was sprayed with a solution of the test compound immediately after the seeds were planted, and before any noticeable growth developed. The solution was about a 2 percent by weight solution of the compound in acetone and/or alcohol. The compound was applied at the rate of 16 pounds per acre of soil surface.
(§3) Approximately 3 weeks after spray application, the herbicidal activity of the compound was determined by visual observation of the treated area in comparison with untreated control areas. These observations are reported below in Table II wherein the average activity rating is reported as the percent control of plant growth.
(§4) *Preemergence test: compound applied at rate of 16 lb/acre

Barnyard Grass [2] = assay: as above; conditions: Echinochloa crus-galli, pre-emergence, 504 h; barnyard grass; 16 lb/acre; about 3 weeks
Text: as §1, §2, §3, §4

Cheatgrass [3] = assay: as above; conditions: Bromus tectorum, pre-emergence, 504 h, 16 lb/acre, about 3 weeks
Text: as §1, §2, §3, §4

Chickweed [4] = assay: as above; conditions: pre-emergence, 504 h, 16 lb/acre, about 3 weeks
Text: as §1, §2, §3, §4

Corn [5] = assay: as above; conditions: Zea mays, pre-emergence, 504 h, 16 lb/acre, about 3 weeks
Text: as §1, §2, §3, §4

Crabgrass [6] = assay: as above; conditions: Digitaria sanguinalis, pre-emergence, 504 h, 16 lb/acre, about 3 weeks
Text: as §1, §2, §3, §4

Cucumber [7] = assay: as above; conditions: Cucumis sativus, pre-emergence, 504 h, 16 lb/acre, about 3 weeks
Text: as §1, §2, §3, §4

Curled Dock [8] = assay: as above; conditions: pre-emergence, 504 h, 16 lb/acre, about 3 weeks
Text: as §1, §2, §3, §4

Foxtail [9] = assay: as above; conditions: Setaria, pre-emergence, 504 h, 16 lb/acre, about 3 weeks
Text: as §1, §2, §3, §4

Johnsongrass [10] = assay: as above; conditions: Sorghum halepense, pre-emergence, 504 h, 16 lb/acre, about 3 weeks
Text: as §1, §2, §3, §4

Lambsquarters [11] = assay: as above; conditions: Chenopodium album, pre-emergence, 504 h, 16 lb/acre, about 3 weeks
Text: as §1, §2, §3, §4

Nutgrass [12] = assay: as above; conditions: pre-emergence, 504 h, 16 lb/acre, about 3 weeks
Text: as §1, §2, §3, §4

Pigweed [13] = assay: as above; conditions: Amaranthus retroflexus, pre-emergence, 504 h, 16 lb/acre, about 3 weeks
Text: as §1, §2, §3, §4

Snapbeans [14] = assay: as above; conditions: pre-emergence, 504 h, 16 lb/acre, about 3 weeks
Text: as §1, §2, §3, §4

Velvetleaf [15] = assay: as above; conditions: Abutilon theophrasti, pre-emergence, 504 h, 16 lb/acre, about 3 weeks
Text: as §1, §2, §3, §4

Wild Oats [16] = assay: as above; conditions: Avena fatua, pre-emergence, 504 h, 16 lb/acre, about 3 weeks
Text: as §1, §2, §3, §4

Yellow Rocket [17] = assay: as above; conditions: pre-emergence, 504 h, 16 lb/acre, about 3 weeks
Text: as §1, §2, §3, §4

Alfalfa [18] = assay: Postemergence herbicidal activity, % control of plant growth; conditions: Medicago sativa, post-emergence, 264 h, 8 lb/acre, about 11 days
Text: (§5) By the term "postemergence" is meant that the compound is applied to the plant sought to be controlled after it has emerged from the soil surface. This term is also used to describe the application of herbicidally active compounds to soil surface in and around growing plants sought to be controlled for purposes of effecting root absorption by the undesirable plant species.
(§6) In the postemergence test the soil and developing plants were sprayed approximately 2 weeks after the seeds were sown. The compound was applied at the rate of 8 pounds per acre from about a 2 percent by weight solution of the test compound in acetone and/or alcohol. The postemergence herbicidal activity was measured in the same way as the preemergence activity; i.e. visual observation approximately 11 days after spraying, and expressed as the percent control of plant growth.
(§7) **Postemergence test: compound applied at rate of 8 lb/acre

Barnyard Grass [19] = assay: as above; conditions: Echinochloa crus-galli, post-emergence, 264 h, 8 lb/acre, about 11 days
Text: as §5, §6, §7

Cheatgrass [20] = assay: as above; conditions: Bromus tectorum, post-emergence, 264 h, 8 lb/acre, about 11 days
Text: as §5, §6, §7

Chickweed [21] = assay: as above; conditions: post-emergence, 264 h, 8 lb/acre, about 11 days
Text: as §5, §6, §7

Corn [22] = assay: as above; conditions: Zea mays, post-emergence, 264 h, 8 lb/acre, about 11 days
Text: as §5, §6, §7

Crabgrass [23] = assay: as above; conditions: Digitaria sanguinalis, post-emergence, 264 h, 8 lb/acre, about 11 days
Text: as §5, §6, §7

Cucumber [24] = assay: as above; conditions: Cucumis sativus, post-emergence, 264 h, 8 lb/acre, about 11 days
Text: as §5, §6, §7

Curled Dock [25] = assay: as above; conditions: post-emergence, 264 h, 8 lb/acre, about 11 days
Text: as §5, §6, §7

Foxtail [26] = assay: as above; conditions: Setaria, post-emergence, 264 h, 8 lb/acre, about 11 days
Text: as §5, §6, §7

Johnsongrass [27] = assay: as above; conditions: Sorghum halepense, post-emergence, 264 h, 8 lb/acre, about 11 days
Text: as §5, §6, §7

Lambsquarters [28] = assay: as above; conditions: Chenopodium album, post-emergence, 264 h, 8 lb/acre, about 11 days
Text: as §5, §6, §7

Nutgrass [29] = assay: as above; conditions: post-emergence, 264 h, 8 lb/acre, about 11 days
Text: as §5, §6, §7

Pigweed [30] = assay: as above; conditions: Amaranthus retroflexus, post-emergence, 264 h, 8 lb/acre, about 11 days
Text: as §5, §6, §7

Snapbeans [31] = assay: as above; conditions: post-emergence, 264 h, 8 lb/acre, about 11 days
Text: as §5, §6, §7

Velvetleaf [32] = assay: as above; conditions: Abutilon theophrasti, post-emergence, 264 h, 8 lb/acre, about 11 days
Text: as §5, §6, §7

Wild Oats [33] = assay: as above; conditions: Avena fatua, post-emergence, 264 h, 8 lb/acre, about 11 days
Text: as §5, §6, §7

Yellow Rocket [34] = assay: as above; conditions: post-emergence, 264 h, 8 lb/acre, about 11 days
Text: as §5, §6, §7

SMILES | pest or weed control at 17933.6 g/ha (Alfalfa [1]) [%] | pest or weed control at 17933.6 g/ha (Barnyard Grass [2]) [%] | pest or weed control at 17933.6 g/ha (Cheatgrass [3]) [%] | pest or weed control at 17933.6 g/ha (Chickweed [4]) [%] | plant injury at 17933.6 g/ha (Corn [5]) [%] | pest or weed control at 17933.6 g/ha (Crabgrass [6]) [%] | pest or weed control at 17933.6 g/ha (Cucumber [7]) [%] | pest or weed control at 17933.6 g/ha (Curled Dock [8]) [%] | pest or weed control at 17933.6 g/ha (Foxtail [9]) [%] | pest or weed control at 17933.6 g/ha (Johnsongrass [10]) [%] | pest or weed control at 17933.6 g/ha (Lambsquarters [11]) [%] | pest or weed control at 17933.6 g/ha (Nutgrass [12]) [%] | pest or weed control at 17933.6 g/ha (Pigweed [13]) [%] | pest or weed control at 17933.6 g/ha (Snapbeans [14]) [%] | pest or weed control at 17933.6 g/ha (Velvetleaf [15]) [%] | pest or weed control at 17933.6 g/ha (Wild Oats [16]) [%] | pest or weed control at 17933.6 g/ha (Yellow Rocket [17]) [%] | pest or weed control at 8966.8 g/ha (Alfalfa [18]) [%] | pest or weed control at 8966.8 g/ha (Barnyard Grass [19]) [%] | pest or weed control at 8966.8 g/ha (Cheatgrass [20]) [%] | other results
CCCCn1c(=O)[nH]c2cccnc2c1=O [3-butyl-pyrido[3,2-d]pyrimidine-2,4(1H,3H)-dione] | 100 | 100 | 100 | 100 | 100 | 90 | 100 | 90 | 100 | 100 | 70 | 100 | 100 | 100 | 100 | 100 | 100 | 50 | 100 | 100 | pest or weed control at 8966.8 g/ha (Chickweed [21]): 100%; plant injury at 8966.8 g/ha (Corn [22]): 50%; pest or weed control at 8966.8 g/ha (Crabgrass [23]): 100%; pest or weed control at 8966.8 g/ha (Cucumber [24]): 100%; pest or weed control at 8966.8 g/ha (Curled Dock [25]): 100%; pest or weed control at 8966.8 g/ha (Foxtail [26]): 100%; pest or weed control at 8966.8 g/ha (Johnsongrass [27]): 100%; pest or weed control at 8966.8 g/ha (Lambsquarters [28]): 10%; pest or weed control at 8966.8 g/ha (Nutgrass [29]): 90%; pest or weed control at 8966.8 g/ha (Pigweed [30]): 90%; pest or weed control at 8966.8 g/ha (Snapbeans [31]): 100%; pest or weed control at 8966.8 g/ha (Velvetleaf [32]): 100%; pest or weed control at 8966.8 g/ha (Wild Oats [33]): 100%; pest or weed control at 8966.8 g/ha (Yellow Rocket [34]): 90%
CCn1c(=O)[nH]c2cccnc2c1=O [3-ethyl-pyrido[3,2-d]pyrimidine-2,4(1H,3H)-dione] | 100 | 40 | 100 | 100 | 10 | 100 | 100 | 100 | 40 | 60 | 100 | 10 | 100 | 100 | 90 | 100 | 100 | 50 | 10 | 30 | pest or weed control at 8966.8 g/ha (Chickweed [21]): 100%; plant injury at 8966.8 g/ha (Corn [22]): 10%; pest or weed control at 8966.8 g/ha (Crabgrass [23]): 80%; pest or weed control at 8966.8 g/ha (Cucumber [24]): 50%; pest or weed control at 8966.8 g/ha (Curled Dock [25]): 90%; pest or weed control at 8966.8 g/ha (Foxtail [26]): 40%; pest or weed control at 8966.8 g/ha (Johnsongrass [27]): 60%; pest or weed control at 8966.8 g/ha (Lambsquarters [28]): 100%; pest or weed control at 8966.8 g/ha (Nutgrass [29]): 10%; pest or weed control at 8966.8 g/ha (Pigweed [30]): 90%; pest or weed control at 8966.8 g/ha (Snapbeans [31]): 80%; pest or weed control at 8966.8 g/ha (Velvetleaf [32]): 100%; pest or weed control at 8966.8 g/ha (Wild Oats [33]): 0%; pest or weed control at 8966.8 g/ha (Yellow Rocket [34]): 100%
